Patent US6908899B2, “Pro-inflammatory fibrinopeptide” (U.S. Dept. of Veterans Affairs, priority 2001, dated 2005)

Columns and labels:
Synovial cells [1] = assay: SAC competition assay by flow cytometry; assay type: binding, human
Description: Thus, labeled peptide could facilitate the isolation, identification and characterization of its receptor, through standard immunological techniques such as immunohistochemistry, flow cytometry and immunoprecipitation.

foreskin fibroblasts [2] = assay: GRO-alpha ELISA on cell culture supernatants; assay type: cell-based, human; settings: for Increase in GRO-alpha secretion: foreskin FB
RA synovial fibroblasts [3] = assay: IL-8 ELISA on cell culture supernatants; assay type: cell-based, human; settings: for IL-8: 1 mg/ml GPRP
Method: (§1) I used commercial ELISA kits to assay cell culture supernatants of RA fibroblasts that were cultured for both 24 and 48 hours with or without peptide.

[4] = test system: synovial cells from patients with osteoarthritis (OA); assay: ICAM-1 ELISA (O.D. 492); assay type: cell-based, human; settings: OA line; overnight; IL-1 0.5 ng/ml, GPRP or GPRP-amide 1 mg/ml, fibrinogen receptor peptide 0.1 mg/ml, FPA, FPB 10^−4 M
synovial cells [5] = assay: RT-PCR of IL-6 gene expression; assay type: cell-based; settings: versus controls
fibrin polymerization = assay: Inhibition of fibrin polymerization; assay type: biochemical; settings: applicant's studies of fibrin co-culture (Reference 19)
Description: (§2) Synthetic peptides modeled after these “knobs” are able to inhibit fibrin polymerization by covering up the “holes” on the gamma chains and are commercially available.
For example, changing Gly1 to anything else destroys its inhibitory action as there appears to be no extra “room” for a side chain in the gamma chain “hole” into which it must fit. However, as noted below, amino acid Pro4 functions differently.

[6] = test system: RA derived synovial cells; assay: In vitro T cell adhesion assay; assay type: cell-based, human; settings: ± SD, triplicate wells
RA synovial cells = assay: PDTC inhibition of IL-1 and GPRP induction of ICAM-1 (ELISA); assay type: cell-based, human; settings: PDTC pre-incubation 1.5 hours, IL-1 or GPRP overnight, ± SD, triplicate
Description: (§3) NF-kappaB activation is already well known to affect a broad array of immediate-early gene products, such as TNF, interleukins, chemokines and colony stimulating factors; genes that are tightly regulated during inflammation and wound healing. […] PDTC is an anti-oxidant that prevents NF-kappaB activation and its translocation to the nucleus (Reference 26). […] [table]

OA synovial cells = assay: as above; assay type: cell-based, human; settings: PDTC pre-incubation 1.5 hours, IL-1 or GPRP overnight, ± SD, triplicate
Description: as §3

foreskin fibroblasts [7] = assay: IL-6 ELISA on cell supernatants; assay type: cell-based, human; settings: overnight with GPRP
foreskin fibroblasts [8] = assay: IL-8 ELISA on cell culture supernatants; assay type: cell-based, human; settings: 1 mg/ml GPRP
[9] = test system: OA derived synovial cells; assay: In vitro T cell adhesion assay; assay type: cell-based, human; settings: OA line 15, ± SD, triplicate wells
endothelial cells = assay: Fibrin co-culture with endothelial cells; assay type: cell-based
Description: as §2

[10] = test system: human lung fibroblastic cells; assay: Response of lung fibroblastic cells to the fibrinopeptide; assay type: cell-based
Description: The peptide of the invention is believed to play a role in inflammatory lung diseases in which fibrin deposition is also known to occur. My research has proven that human lung fibroblastic cells are also responsive to the fibrinopeptide, and under its influence, will express selective pro-inflammatory molecules on the cell surface and will secrete pro-inflammatory mediators, such as cytokines and chemical attractants for immune cells.

RA synovial fibroblasts [11] = assay: GRO-alpha ELISA on cell culture supernatants; assay type: cell-based, human
Method: as §1

[12] = test system: synovial fibroblast lines; assay: V-CAM-1 expression on synovial lines; assay type: cell-based, human; settings: in response to the peptide
RA synovial fibroblasts [13] = assay: ICAM-1 cell-ELISA (O.D. 492); assay type: cell-based, human; settings: for ICAM-1 O.D. 492 / ICAM-1 expression O.D. 492: overnight; for ICAM-1 O.D. 492: IL-1 0.5 ng/ml, GPRP or GPRP-amide 1 mg/ml, fibrinogen receptor peptide 0.1 mg/ml, FPA, FPB 10^−4 M; for ICAM-1 expression O.D. 492: fibrin clots 0.6 mg/ml or GPRP 1 mg/ml, mean ± SD, triplicate
[14] = test system: human foreskin fibroblasts; assay: Flow cytometry analysis of ICAM-1 expression; assay type: cell-based; settings: GPRP 1 mg/ml
foreskin fibroblasts [15] = assay: ICAM-1 cell-ELISA (O.D. 492); assay type: cell-based, human
RA synovial fibroblasts [16] = assay: IL-6 ELISA on cell supernatants; assay type: cell-based, human; settings: overnight with GPRP

Chain of fibrin polymerization (P02679 27-453): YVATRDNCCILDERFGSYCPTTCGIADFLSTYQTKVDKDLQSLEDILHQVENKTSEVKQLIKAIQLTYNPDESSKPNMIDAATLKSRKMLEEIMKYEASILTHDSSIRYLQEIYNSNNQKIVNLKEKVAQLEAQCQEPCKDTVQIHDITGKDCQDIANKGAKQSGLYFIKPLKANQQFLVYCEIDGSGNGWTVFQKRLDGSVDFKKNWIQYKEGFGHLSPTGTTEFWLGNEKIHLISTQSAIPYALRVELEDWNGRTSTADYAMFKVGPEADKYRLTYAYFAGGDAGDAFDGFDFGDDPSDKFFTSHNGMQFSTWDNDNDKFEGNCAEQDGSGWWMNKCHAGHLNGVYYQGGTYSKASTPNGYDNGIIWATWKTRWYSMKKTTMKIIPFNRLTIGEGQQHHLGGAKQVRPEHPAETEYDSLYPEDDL
Chain of fibrin polymerization (P02671 20-639 isoform P02671-2 partner limits assumed): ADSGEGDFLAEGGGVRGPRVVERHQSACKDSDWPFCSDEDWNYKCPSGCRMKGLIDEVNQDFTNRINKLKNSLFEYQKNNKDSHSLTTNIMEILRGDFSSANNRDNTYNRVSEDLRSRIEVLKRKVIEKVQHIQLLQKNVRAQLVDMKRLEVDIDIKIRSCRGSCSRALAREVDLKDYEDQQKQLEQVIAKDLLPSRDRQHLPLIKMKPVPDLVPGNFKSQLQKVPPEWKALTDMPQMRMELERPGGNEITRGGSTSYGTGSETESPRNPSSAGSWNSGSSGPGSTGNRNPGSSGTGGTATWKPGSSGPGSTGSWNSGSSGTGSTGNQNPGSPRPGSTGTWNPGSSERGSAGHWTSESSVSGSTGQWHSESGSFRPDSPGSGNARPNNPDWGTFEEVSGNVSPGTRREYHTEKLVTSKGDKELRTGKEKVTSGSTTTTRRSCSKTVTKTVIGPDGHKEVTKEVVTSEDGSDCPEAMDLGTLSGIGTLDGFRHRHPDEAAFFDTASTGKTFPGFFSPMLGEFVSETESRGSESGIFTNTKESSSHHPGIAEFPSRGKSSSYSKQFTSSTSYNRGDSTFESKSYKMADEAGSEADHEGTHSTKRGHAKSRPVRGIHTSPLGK
Chain of fibrin polymerization (P02675 45-491 partner limits assumed): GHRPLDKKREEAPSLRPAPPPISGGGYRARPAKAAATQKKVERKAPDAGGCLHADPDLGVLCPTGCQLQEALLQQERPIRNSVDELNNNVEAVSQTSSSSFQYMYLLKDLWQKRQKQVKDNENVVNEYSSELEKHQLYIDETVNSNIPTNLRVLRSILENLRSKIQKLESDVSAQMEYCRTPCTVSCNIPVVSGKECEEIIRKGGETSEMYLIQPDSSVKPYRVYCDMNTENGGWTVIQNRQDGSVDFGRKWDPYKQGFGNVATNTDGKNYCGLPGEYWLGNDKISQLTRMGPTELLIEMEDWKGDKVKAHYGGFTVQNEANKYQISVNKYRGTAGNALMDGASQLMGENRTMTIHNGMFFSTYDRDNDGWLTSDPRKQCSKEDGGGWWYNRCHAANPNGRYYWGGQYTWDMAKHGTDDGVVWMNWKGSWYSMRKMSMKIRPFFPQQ

## Gly-Pro-Arg-Pro [GPRP]
Synovial cells [1]; unlabeled competitor
  Competition with biotin-labeled SAC for binding to human synovial fibroblasts: can compete
Synovial cells [1]; unlabeled competitor 2.5 mg for 3 hours, then labeled SAC[KBtn] for 1 hour, Avidin-FITC
  Mean (fluorescence of bound SAC[KBtn]): 33.58
Foreskin fibroblasts [2]; Foreskin fibroblasts, 1 mg/ml GPRP
  GRO-alpha: 470 pg/mL
Foreskin fibroblasts [2]; Foreskin fibroblasts, 1 mg/ml GPRP, versus control
  GRO-alpha Fold Increase: 1.2X
Foreskin fibroblasts [2]; forty-eight hours
  Increase in GRO-alpha secretion: 1.2 fold
Foreskin fibroblasts [2]; twenty-four hours
  Increase in GRO-alpha secretion: 1.2 fold
RA synovial fibroblasts [3]; RA Line 1, forty-eight hours
  Increase of IL-8 production: fifteen
RA synovial fibroblasts [3]; RA Line 1, twenty-four hours
  Increase of IL-8 production: 12.6 fold
RA synovial fibroblasts [3]; RA Line 2, forty-eight hours
  Increase of IL-8 production: ten
RA synovial fibroblasts [3]; RA Line 2, twenty-four hours
  Increase of IL-8 production: ten
RA synovial fibroblasts [3]; RA line 1, 24 hr
  IL-8: 16,000 pg/ml
RA synovial fibroblasts [3]; RA line 1, 48 hr
  IL-8: 17,500 pg/ml
RA synovial fibroblasts [3]; RA line 4, 24 hr
  IL-8: 9,000 pg/ml
RA synovial fibroblasts [3]; RA line 4, 48 hr
  IL-8: 6,800 pg/ml
[4]
  ICAM-1 O.D. 492: 0.85 ± .08
Synovial cells [5]
  IL-6 gene expression: significantly more IL-6 gene expression than controls
Fibrin polymerization
  Inhibition of fibrin polymerization: good inhibitor of fibrin polymerization
[6]; RA line 7, GPRP 0.1 mg/ml overnight
  Adherent T cell numbers: 184 ± 58
[6]; RA line 7, GPRP 1 mg/ml overnight
  Adherent T cell numbers: 153 ± 54
[6]; RA line 8, GPRP 0.1 mg/ml overnight
  Adherent T cell numbers: 99 ± 18
[6]; RA line 8, GPRP 1 mg/ml overnight
  Adherent T cell numbers: 97 ± 10
RA synovial cells; RA line 5
  ICAM-1 O.D. 492: 1.83 ± .08
RA synovial cells; RA line 6
  ICAM-1 O.D. 492: 1.67 ± .06
OA synovial cells; OA line 2
  ICAM-1 O.D. 492: 1.66 ± .05
OA synovial cells; OA line 8
  ICAM-1 O.D. 492: 1.30 ± .09
Foreskin fibroblasts [7]
  IL-6: 215 pg/mL
Foreskin fibroblasts [8]; 24 hr
  IL-8: 1,840 pg/ml
Foreskin fibroblasts [8]; 48 hr
  IL-8: 1,200 pg/ml
[9]; GPRP 0.1 mg/ml overnight
  Adherent T cell numbers: 92 ± 27
[9]; GPRP 1 mg/ml overnight
  Adherent T cell numbers: 113 ± 44
Endothelial cells
  Direct effects on endothelial cells: no direct effects
[10]
  Responsiveness of lung fibroblastic cells (surface pro-inflammatory molecules, secreted mediators): responsive
RA synovial fibroblasts [11]; RA fibroblasts, visual observation of developed ELISA plates
  GRO-alpha Fold Increase: at least as much as was seen for IL-8
RA synovial fibroblasts [11]; RA line 8, 1 mg/ml GPRP
  GRO-alpha: 8500 pg/mL
RA synovial fibroblasts [11]; RA line 8, 1 mg/ml GPRP, versus control
  GRO-alpha Fold Increase: 21X
[12]
  Lines tested that upregulated V-CAM-1 expression: about 50 % of the lines tested
RA synovial fibroblasts [13]; GPRP at 0.01 mg/ml
  ICAM-1 induction: not to be significant
RA synovial fibroblasts [13]; GPRP at 1.0, 0.5, and 0.1 mg/ml
  ICAM-1 induction: significant induction
RA synovial fibroblasts [13]; RA line 1
  ICAM-1 O.D. 492: 1.38 ± .16
RA synovial fibroblasts [13]; RA line 2
  ICAM-1 O.D. 492: 0.98 ± .03
RA synovial fibroblasts [13]; RA line 4
  ICAM-1 expression O.D. 492: 1.04 ± .02
RA synovial fibroblasts [13]; RA line 5
  ICAM-1 expression O.D. 492: 1.10 ± .03
RA synovial fibroblasts [13]; RA line 9
  ICAM-1 expression O.D. 492: 0.98 ± .15
RA synovial fibroblasts [13]; RA#11, GPRP 0.10 mg/ml overnight
  ICAM-1 OD 492: .37 ± 0
RA synovial fibroblasts [13]; RA#11, GPRP 0.30 mg/ml overnight
  ICAM-1 OD 492: .46 ± .05
RA synovial fibroblasts [13]; RA#11, GPRP 1.00 mg/ml overnight
  ICAM-1 OD 492: .59 ± .05
RA synovial fibroblasts [13]; RA#11, GPRP .001 mg/ml overnight
  ICAM-1 OD 492: .24 ± .05
RA synovial fibroblasts [13]; RA#11, GPRP .003 mg/ml overnight
  ICAM-1 OD 492: .25 ± .03
RA synovial fibroblasts [13]; RA#11, GPRP .010 mg/ml overnight
  ICAM-1 OD 492: .24 ± .05
RA synovial fibroblasts [13]; RA#11, GPRP .030 mg/ml overnight
  ICAM-1 OD 492: .31 ± .02
RA synovial fibroblasts [13]; RA#12, GPRP 0.10 mg/ml overnight
  ICAM-1 OD 492: 0.76 ± .03
RA synovial fibroblasts [13]; RA#12, GPRP 0.30 mg/ml overnight
  ICAM-1 OD 492: 1.09 ± .06
RA synovial fibroblasts [13]; RA#12, GPRP 1.00 mg/ml overnight
  ICAM-1 OD 492: 1.42 ± .08
RA synovial fibroblasts [13]; RA#12, GPRP .001 mg/ml overnight
  ICAM-1 OD 492: 0.51 ± .01
RA synovial fibroblasts [13]; RA#12, GPRP .003 mg/ml overnight
  ICAM-1 OD 492: 0.53 ± .01
RA synovial fibroblasts [13]; RA#12, GPRP .010 mg/ml overnight
  ICAM-1 OD 492: 0.57 ± .02
RA synovial fibroblasts [13]; RA#12, GPRP .030 mg/ml overnight
  ICAM-1 OD 492: 0.62 ± .03
RA synovial fibroblasts [13]; more than seven different RA fibroblast lines
  ICAM-1 expression: consistently increased expression of ICAM-1
[14]
  ICAM-1 % positive: 86.7%
  ICAM-1 MFC: 2.26
Foreskin fibroblasts [15]; FF-#1, GPRP 0.10 mg/ml overnight
  ICAM-1 OD 492: 0.92 ± .02
Foreskin fibroblasts [15]; FF-#1, GPRP 0.30 mg/ml overnight
  ICAM-1 OD 492: 0.99 ± .01
Foreskin fibroblasts [15]; FF-#1, GPRP 1.00 mg/ml overnight
  ICAM-1 OD 492: 1.02 ± .01
Foreskin fibroblasts [15]; FF-#1, GPRP .001 mg/ml overnight
  ICAM-1 OD 492: 0.92 ± .01
Foreskin fibroblasts [15]; FF-#1, GPRP .003 mg/ml overnight
  ICAM-1 OD 492: 0.95 ± .06
Foreskin fibroblasts [15]; FF-#1, GPRP .010 mg/ml overnight
  ICAM-1 OD 492: 0.93 ± .03
Foreskin fibroblasts [15]; FF-#1, GPRP .030 mg/ml overnight
  ICAM-1 OD 492: 0.94 ± .05
Foreskin fibroblasts [15]; FF-#2, GPRP 0.10 mg/ml overnight
  ICAM-1 OD 492: .72 ± .02
Foreskin fibroblasts [15]; FF-#2, GPRP 0.30 mg/ml overnight
  ICAM-1 OD 492: .72 ± .03
Foreskin fibroblasts [15]; FF-#2, GPRP 1.00 mg/ml overnight
  ICAM-1 OD 492: .78 ± .04
Foreskin fibroblasts [15]; FF-#2, GPRP .001 mg/ml overnight
  ICAM-1 OD 492: .69 ± .02
Foreskin fibroblasts [15]; FF-#2, GPRP .003 mg/ml overnight
  ICAM-1 OD 492: .71 ± .04
Foreskin fibroblasts [15]; FF-#2, GPRP .010 mg/ml overnight
  ICAM-1 OD 492: .71 ± .02
Foreskin fibroblasts [15]; FF-#2, GPRP .030 mg/ml overnight
  ICAM-1 OD 492: .70 ± .02
Foreskin fibroblasts [15]; Foreskin fibroblasts, overnight, fibrin clots 0.6 mg/ml, GPRP 1 mg/ml or interferon γ 200 U/ml, mean ± SD
  ICAM-1 expression O.D. 492: 0.55 ± .05
Foreskin fibroblasts [15]; Foreskin line, overnight, IL-1 0.5 ng/ml, GPRP or GPRP-amide 1 mg/ml, fibrinogen receptor peptide 0.1 mg/ml, FPA, FPB 10^−4 M
  ICAM-1 O.D. 492: 0.79 ± .02
RA synovial fibroblasts [16]; RA #1
  IL-6: 2400 pg/mL
  IL-6 INCREASE over control: 1.50X
RA synovial fibroblasts [16]; RA #11
  IL-6: 1700 pg/mL
  IL-6 INCREASE over control: 6.18X
RA synovial fibroblasts [16]; RA #16
  IL-6: 11100 pg/mL
  IL-6 INCREASE over control: 3.70X
RA synovial fibroblasts [16]; RA #18
  IL-6: 940 pg/mL
  IL-6 INCREASE over control: 1.90X
